Experimental data from patent US12162867B2, “Inhibitors of RNA helicase DHX9 and uses thereof” (ACCENT THERAPEUTICS, INC., priority 2022, dated 2024).
Where two headings read alike, the source gives them in different places.

Experiments:
Format in all cases: cell-based
LS411N cells = test: DHX9 cellular proliferation assay (CellTiter-Glo), LS411N (CRC-MSI); conditions: Homo sapiens, LS-411N, LS411N, performed at Pharmaron, read-out: LS411N (CRC-MSI-H) Antiproliferative IC50
NCI-H747 cells = test: DHX9 cellular proliferation assay (CellTiter-Glo), NCI-H747 (CRC-MSS); conditions: Homo sapiens, performed at Pharmaron, read-out: H747 (CRC-MSS) Antiproliferative IC50
[1] = system: circBRIP1 in HCT116 cells; test: DHX9 circBRIP1 cellular target engagement TaqMan Multiplex assay (qPCR); conditions: Homo sapiens, read-out: DHX9 Cellular Target Engagement EC50
[2] = HCT-116, 72 h, circBRIP1, HCT116 cells, 72 hours, Taqman assay (marked *)
[3] = HCT-116, circBRIP1, HCT116 cells, * Taqman assay was used

IC50 (NCI-H747 cells; NCI-H747, NCI-H747, CRC-MSS) [nM] | EC50 [1, 2] [nM] | IC50 (NCI-H747 cells; NCI-H747, NCI-H747) [nM] | EC50 [1, 3] [nM] | Compound | IC50 (LS411N cells; CRC-MSI-H) [nM] | IC50 (LS411N cells) [nM]
6250 | 43.2 |  |  | COc1cnc(-c2cc(C(=O)Nc3cc(Cl)cc(NS(C)(=O)=O)c3)sc2C)c(C)c1 [Example 361] | 361 | 
 |  | 1940 | 32.8 | CCOc1cnc(-c2cc(C(=O)Nc3cc(Cl)cc(NS(C)(=O)=O)c3)sc2C)c(F)c1 [Example 456] |  | 209
 |  | 9760 | 14.4 | Cc1sc(C(=O)Nc2cc(Cl)cc(NS(C)(=O)=O)c2)cc1-c1ncc(N2CC(F)(F)C2)cc1C#N [Example 715] |  | 69.9
 |  | 6960 | 72.3 | COc1cc(N2CC(F)(F)C2)cnc1-c1cc(C(=O)Nc2cc(Cl)cc(NS(=O)(=O)CCO)c2)sc1C [Example 528] |  | 1130
 |  | > 10000 | 45.5 | Cc1sc(C(=O)Nc2cc(Cl)cc(NS(C)(=O)=O)c2)cc1-c1ncc(N2CC(F)(F)C2)cc1OC1CCC1 [Example 514] |  | 149
6870 | 53.3 |  |  | COc1cnc(-c2cc(C(=O)Nc3cc(Cl)cc(NS(C)(=O)=O)c3)sc2C)c(F)c1 [Example 358] | 129 | 
 |  | 2060 | 22.5 | Cc1sc(C(=O)Nc2cc(Cl)cc(NS(C)(=O)=O)c2)cc1-c1ncc(N2CC(C(F)(F)F)C2)cn1 [Example 489] |  | 51
 |  | > 10000 | 4.7 | COc1cc(N2CC(F)(F)C2)cnc1-c1cc(C(=O)Nc2cc(Cl)cc(NS(C)(=O)=O)c2)sc1C [Example 535] |  | 93.3
 |  | 7410 | 16.9 | Cc1sc(C(=O)Nc2cc(Cl)cc(NS(C)(=O)=O)c2)cc1-c1ncc(N2CCC(F)(F)C2)cn1 [Example 479] |  | 37.4
 |  | 8120 | 31.6 | Cn1cc(C(=O)Nc2cc(Cl)cc(NS(C)(=O)=O)c2)cc1-c1ncc(N2CC3(C2)CC(F)(F)C3)cc1F [Example 702] |  | 224
 |  | 3870 | 50.6 | Cc1cc(C(=O)Nc2cc(Cl)cc(NS(C)(=O)=O)c2)cn1-c1ncc(N2CC(F)(F)C2)cc1F [Example 420] |  | 353
 |  | 8870 | 27.5 | Cc1sc(C(=O)Nc2cc(Cl)cc(NS(C)(=O)=O)c2)cc1-c1ncc(N2CCC(F)(F)CC2)cc1F [Example 471] |  | 72.5
 |  | > 10000 | 106 | COC(=O)N1CCN(c2cnc(-c3cc(C(=O)Nc4cc(Cl)cc(NS(C)(=O)=O)c4)sc3C)c(C)c2)CC1 [Example 601] |  | 64.5
 |  | > 10000 | 24.8 | Cc1sc(C(=O)Nc2cc(Cl)cc(NS(C)(=O)=O)c2)cc1-c1ccc(N2CC3(C2)CC(F)(F)C3)cn1 [Example 499] |  | 65.7
> 10000 | 58.2 |  |  | Cc1sc(C(=O)Nc2cc(Cl)cc(NS(C)(=O)=O)c2)cc1-c1ncc(F)cc1F [Example 349] | 154 | 
 |  | > 10000 | 16.1 | Cc1sc(C(=O)Nc2cc(Cl)cc(NS(C)(=O)=O)c2)cc1-c1ncc(N2CC(F)(F)C2)cn1 [Example 510] |  | 123
 |  | 1140 | 35.6 | Cc1sc(C(=O)Nc2cc(Cl)cc(NS(C)(=O)=O)c2)cc1-c1ncc(N2CCCC(F)(F)C2)cc1F [Example 482] |  | 66.8
> 10000 | 96.8 |  |  | CCS(=O)(=O)Nc1cc(Cl)cc(NC(=O)c2cc(-c3ncc(F)cc3F)c(C)s2)c1 [Example 347] | 160 | 
 |  | > 10000 | 19.1 | Cc1sc(C(=O)Nc2cc(Cl)cc(NS(C)(=O)=O)c2)cc1-c1ncc(OC2CN(C)C2)cc1F [Example 635] |  | 79.2
965 | 183 |  |  | Cc1sc(C(=O)Nc2cc(Cl)cc(NS(C)(=O)=O)c2)cc1-c1ncc(OC(C)(C)C)cc1F [Example 381] | 347 | 
 |  | 5360 | 25.4 | Cc1sc(C(=O)Nc2cc(Cl)cc(NS(C)(=O)=O)c2)cc1-c1ncc(N2CC(F)(F)C2)cc1OCC(F)(F)F [Example 707] |  | 68.5

Further lines, the compound ahead of its results:

Compound | IC50 (NCI-H747 cells; NCI-H747, NCI-H747, CRC-MSS) [nM] | EC50 [1, 2] [nM] | IC50 (NCI-H747 cells; NCI-H747, NCI-H747) [nM] | EC50 [1, 3] [nM] | IC50 (LS411N cells; CRC-MSI-H) [nM] | IC50 (LS411N cells) [nM]
Cc1sc(C(=O)Nc2cc(Cl)cc(NS(C)(=O)=O)c2)cc1-c1ccc(OC(C)(C)C)cn1 [Example 380] | 3620 | 25.1 |  |  | 54.1 | 
CS(=O)(=O)Nc1cc(Cl)cc(NC(=O)c2c[nH]c(-c3ncc(F)cc3F)c2)c1 [Example 560] |  |  | > 10000 | 148 |  | 145
Cn1cc(C(=O)Nc2cc(Cl)cc(NS(C)(=O)=O)c2)cc1-c1ccc(N2CC(CS(C)(=O)=O)C2)cn1 [Example 695] |  |  | > 10000 | 143 |  | 2970
Cn1cc(C(=O)Nc2cc(Cl)cc(NS(C)(=O)=O)c2)cc1-c1ncc(OC2CN(CC(F)F)C2)cc1F [Example 614] |  |  | 3190 | 26.9 |  | 53.1
Cn1cc(C(=O)Nc2cc(Cl)cc(NS(C)(=O)=O)c2)cc1-c1ncc(N2CC(F)C2)cc1F [Example 466] |  |  | 4850 | 52.4 |  | 350
Cc1sc(C(=O)Nc2cc(Cl)cc(NS(C)(=O)=O)c2)cc1-c1ncc(OC2CCC2)cn1 [Example 452] |  |  | > 10000 | 65.3 |  | 223
CCOc1cnc(-c2cc(C(=O)Nc3cc(Cl)cc(NS(C)(=O)=O)c3)cn2C)c(F)c1 [Example 453] |  |  | 6550 | 54.6 |  | 218
Cn1cc(C(=O)Nc2cc(Cl)cc(NS(C)(=O)=O)c2)cc1-c1ncc(OC(C)(C)C)cc1F [Example 557] |  |  | 2300 | 92.6 |  | 131
Cc1sc(C(=O)Nc2cc(Cl)cc(NS(=O)(=O)CCO)c2)cc1-c1ncccc1OCc1cncc(F)c1 [Example 626] |  |  | > 10000 | 24.1 |  | 137
Cc1cc(C(=O)Nc2cc(Cl)cc(NS(C)(=O)=O)c2)cn1-c1ccc(N2C3CCC2CC3)cn1 [Example 523] |  |  | 5950 | 57.2 |  | 174
Cc1sc(C(=O)Nc2cc(Cl)cc(NS(C)(=O)=O)c2)cc1-c1ccc(C#N)cn1 [Example 377] | > 10000 | 37.4 |  |  | 140 | 
CCS(=O)(=O)Nc1cc(Cl)cc(NC(=O)c2cc(-c3ccc(F)cn3)n(C)c2)c1 [Example 579] |  |  | > 10000 | 103 |  | 329
CCS(=O)(=O)Nc1cc(Cl)cc(NC(=O)c2cc(-c3ncc(F)cc3OC)c(C)s2)c1 [Example 354] | 8060 | 34.5 |  |  | 71.5 | 
CN1CC(Oc2cnc(-c3cc(C(=O)Nc4cc(Cl)cc(NS(C)(=O)=O)c4)cn3CC(F)(F)F)nc2)C1 [Example 613] |  |  | > 10000 | 116 |  | 173
CCS(=O)(=O)Nc1cc(Cl)cc(NC(=O)c2cc(-c3ncc(F)cc3OCc3cncnc3)c(C)s2)c1 [Example 623] |  |  | > 10000 | 11.2 |  | 72.3
CN(C)CCOc1cnc(-c2cc(C(=O)Nc3cc(Cl)cc(NS(C)(=O)=O)c3)cn2C)c(F)c1 [Example 646] |  |  | > 10000 | 45.3 |  | 32.5
Cc1cc(C(=O)Nc2cc(Cl)cc(NS(C)(=O)=O)c2)cn1-c1ccc(N2CCC3(CC3)C2)cn1 [Example 522] |  |  | > 10000 | 109 |  | 211
CCS(=O)(=O)Nc1cc(Cl)cc(NC(=O)c2cc(C)n(-c3ncc(N4CC(F)(F)C4)cn3)c2)c1 [Example 423] |  |  | 8030 | 51.2 |  | 269
COc1ccc(-c2cc(C(=O)Nc3cc(Cl)cc(NS(C)(=O)=O)c3)sc2C)nc1 [Example 352] | 8750 | 21 |  |  | 50 | 
COC(=O)N1CCN(c2ccc(-c3cc(C(=O)Nc4cc(Cl)cc(NS(C)(=O)=O)c4)cn3C)nc2)CC1 [Example 596] |  |  | 9880 | 38 |  | 172
Cc1cc(C(=O)Nc2cc(Cl)cc(NS(C)(=O)=O)c2)cn1-c1ncc(N2CC(F)(F)C2)cc1C#N [Example 415] |  |  | 7150 | 68.9 |  | 502
COc1cnc(-c2cc(C(=O)Nc3cc(Cl)cc(NS(C)(=O)=O)c3)cn2C)c(F)c1 [Example 454] |  |  | 5810 | 18.2 |  | 218
Cn1cc(C(=O)Nc2cc(Cl)cc(NS(C)(=O)=O)c2)cc1-c1ccc(N2CCC(F)(F)C2)cn1 [Example 527] |  |  | 5580 | 109 |  | 65.4
CC(C)Oc1ccc(-c2csc(C(=O)Nc3cc(Cl)cc(NS(C)(=O)=O)c3)c2)nc1 [Example 459] |  |  | 2660 | 58.2 |  | 93.7
Cc1sc(C(=O)Nc2cc(Cl)cc(NS(C)(=O)=O)c2)cc1-c1ncc(OC2CN(C)C2)cn1 [Example 609, N-(3-chloro-5-methanesulfonamidophenyl)-5-methyl-4-{5-[(1-methylazetidin-3-yl)oxy]pyrimidin-2-yl}thiophene-2-carboxamide] |  |  | > 10000 | 4.7 |  | 658
CCS(=O)(=O)Nc1cc(Cl)cc(NC(=O)c2cc(-c3ccc(N4CC(F)(F)C4)cn3)n(C)c2)c1 [Example 403] |  |  | 7410 | 100 |  | 230
Cn1cc(C(=O)Nc2cc(Cl)cc(NS(C)(=O)=O)c2)cc1-c1ncc(N2CC(F)(F)C2)cc1OCc1cnco1 [Example 733] |  |  | > 10000 | 88.3 |  | 206
CCS(=O)(=O)Nc1cc(Cl)cc(NC(=O)c2cc(-c3ncc(N4CC(F)C4)cn3)c(C)s2)c1 [Example 509] |  |  | 5890 | 17.7 |  | 73.1
